Measured values: US8076487B2, “Pyridone derivative and herbicide” (Kumiai Chemical Industry Co., Ltd., priority 2006, dated 2011)

Experiments:
Assay type in all cases: in vivo
[1] = test system: barnyardgrass (Echinochloa crus-galli (L.) P. Beauv. var. crus-galli); test: Test Example 3: herbicidal effect by application to upland field (foliage treatment); conditions: 14th day after application; for herbicidal effect, Barnyardgrass: foliage treatment, 1,000 g active ingredient per 1 hectare, greenhouse
Procedure, shortened: (§1)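 Greenhouse-grown plants, two weeks old in field soil, were treated by spraying their foliage with a water dilution of wettable powder. Rate: 1,000 g active ingredient in a 1,000 L/ha equivalent volume. Assessment followed at 14 days.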

[2] = test system: green foxtail (Setaria viridis (L.) P. Beauv.); test: as above; conditions: 14th day after application; for herbicidal effect, Green Foxtail: foliage treatment, 1,000 g active ingredient per 1 hectare, greenhouse
Procedure, shortened: as §1

[3] = test system: slender amaranth (Amaranthus viridis L.); test: as above; conditions: 14th day after application; for herbicidal effect, Slender Amaranth: foliage treatment, 1,000 g active ingredient per 1 hectare, greenhouse
Procedure, shortened: as §1

[4] = test system: velvetleaf (Abutilon theophrasti medicus); test: as above; conditions: 14th day after application; for herbicidal effect, Velvetleaf: foliage treatment, 1,000 g active ingredient per 1 hectare, greenhouse
Procedure, shortened: as §1

[5] = test system: barnyardgrass (Echinochloa crus-galli (L.) P. Beauv. var. crus-galli); test: Test Example 2: herbicidal effect by soil application to upland field; conditions: soil surface spray, upland field soil, 1,000 g active ingredient per hectare, 21st day after application
Procedure, shortened: (§2)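 Pre-emergence soil test: seeds sown in pots of field soil, then wettable-powder formulation sprayed on soil surface at 1,000 g active ingredient per hectare in 1,000 L water per hectare. Plants grown in greenhouse; herbicidal effect scored on a standard scale at day 21.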

[6] = test system: green foxtail (Setaria viridis (L.) P. Beauv.); test: as above; conditions: soil surface spray, upland field soil, 1,000 g active ingredient per hectare, 21st day after application
Procedure, shortened: as §2

[7] = test system: slender amaranth (Amaranthus viridis L.); test: as above; conditions: soil surface spray, upland field soil, 1,000 g active ingredient per hectare, 21st day after application
Procedure, shortened: as §2

[8] = test system: velvetleaf (Abutilon theophrasti medicus); test: as above; conditions: soil surface spray, upland field soil, 1,000 g active ingredient per hectare, 21st day after application
Procedure, shortened: as §2

[9] = test system: Japanese bulrush (Scirpus juncoides Roxb.); test: Test Example 1: herbicidal effect by soil application to paddy field; conditions: paddy field soil application; active ingredient 1,000 g per 1 hectare; wettable powder added dropwise to water surface the day after sowing; examined on the 21st day after application
Procedure, shortened: (§3)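 Plants were sown in flooded (3 cm) paddy soil and evaluated for herbicidal effect 21 days after soil application in a greenhouse.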

[10] = test system: heartshape false pickerelweed (Monochoria vaginalis (Burm.f.) C.Presl); test: as above; conditions: paddy field soil application; active ingredient 1,000 g per 1 hectare; wettable powder added dropwise to water surface the day after sowing; examined on the 21st day after application
Procedure, shortened: as §3

[11] = test system: early watergrass (Echinochloa oryzicola Vasing); test: as above; conditions: paddy field soil application; active ingredient 1,000 g per 1 hectare; wettable powder added dropwise to water surface the day after sowing; examined on the 21st day after application
Procedure, shortened: as §3

[12] = foliage treatment, plants grown two weeks, 1,000 g active ingredient per hectare

Row | SMILES | herbicidal effect, Barnyardgrass [1] | herbicidal effect, Green Foxtail [2] | herbicidal effect, Slender Amaranth [3] | herbicidal effect, Velvetleaf [4] | herbicidal effect (index), Barnyardgrass [5] | herbicidal effect (index), Green Foxtail [6] | herbicidal effect (index), Slender Amaranth [7] | herbicidal effect (index), Velvetleaf [8] | herbicidal effect, Scirpus juncoides Roxb. [9] | herbicidal effect, Monochoria vaginalis (Burm. f.) C. Presl [10] | herbicidal effect, Echinochloa oryzicola Vasing [11] | herbicidal effect (index), Barnyardgrass [1, 12] | herbicidal effect (index), Green Foxtail [2, 12] | herbicidal effect (index), Slender Amaranth [3, 12] | herbicidal effect (index), Velvetleaf [4, 12]
1 | COCCOCCn1c(C(F)(F)F)ccc(C(=O)C2=C(O)C(C)(C)CCC2=O)c1=O [II-31] | 5 (90% or more of herbicidal effect and crop phytotoxicity) | 5 (90% or more of herbicidal effect and crop phytotoxicity) | 5 (90% or more of herbicidal effect and crop phytotoxicity) | 5 (90% or more of herbicidal effect and crop phytotoxicity) | 5 (90% or more of herbicidal effect and crop phytotoxicity) | 5 (90% or more of herbicidal effect and crop phytotoxicity) | 5 (90% or more of herbicidal effect and crop phytotoxicity) | 5 (90% or more of herbicidal effect and crop phytotoxicity) | 5 (90% or more of herbicidal effect and crop phytotoxicity) | 5 (90% or more of herbicidal effect and crop phytotoxicity) | 5 (90% or more of herbicidal effect and crop phytotoxicity) |  |  |  | 
2 | CCCS(=O)(=O)Oc1c(C(=O)c2ccc(C(F)(F)F)n(C(C)COC)c2=O)cnn1C (stereo not drawn) [IV-37] | 5 (90% or more of herbicidal effect and crop phytotoxicity) | 3 (50 to less than 70% of herbicidal effect and crop phytotoxicity) | 5 (90% or more of herbicidal effect and crop phytotoxicity) | 5 (90% or more of herbicidal effect and crop phytotoxicity) | 5 (90% or more of herbicidal effect and crop phytotoxicity) | 5 (90% or more of herbicidal effect and crop phytotoxicity) | 5 (90% or more of herbicidal effect and crop phytotoxicity) | 5 (90% or more of herbicidal effect and crop phytotoxicity) | 5 (90% or more of herbicidal effect and crop phytotoxicity) | 5 (90% or more of herbicidal effect and crop phytotoxicity) | 5 (90% or more of herbicidal effect and crop phytotoxicity) |  |  |  | 
3 | N#Cc1ccc(-n2c(C(F)(F)F)ccc(C(=O)C3=C(O)CCCC3=O)c2=O)cc1 [I-95] |  |  |  |  | 5 (90% or more of herbicidal effect and crop phytotoxicity) | 5 (90% or more of herbicidal effect and crop phytotoxicity) | 5 (90% or more of herbicidal effect and crop phytotoxicity) | 5 (90% or more of herbicidal effect and crop phytotoxicity) | 5 (90% or more of herbicidal effect and crop phytotoxicity) | 5 (90% or more of herbicidal effect and crop phytotoxicity) | 5 (90% or more of herbicidal effect and crop phytotoxicity) | 5 (90% or more of herbicidal effect and crop phytotoxicity) | 5 (90% or more of herbicidal effect and crop phytotoxicity) | 5 (90% or more of herbicidal effect and crop phytotoxicity) | 5 (90% or more of herbicidal effect and crop phytotoxicity)
